{
  "source": "patent US4446129A",
  "about": "“Method for treatment of arthrosis deformans with elastase” (Eisai Co., Ltd., priority 1982, dated 1984)",
  "key": {"gonarthralgia": {"system": "gonarthralgia", "assay": "Clinical examples: effectiveness against gonarthralgia", "assay_type": "in vivo, human", "excerpt": "(§1) The subjects included 18 patients (men 6 cases, women 12 cases, ages 57 to 88, average 70.9±8.2 years old) that were diagnosed negative as to rheumatoid arthrosis and were clinically diagnosed as suffering from gonarthrosis deformans. […] The distribution of the duration of gonarthralgia in the patients from the onset thereof was such that six cases fell into each of the periods of (1) three years or shorter, (2) four to five years, and (3) five years or longer.\n(§2) The effectiveness of elastase against gonarthrosis deformans was evaluated by administering capsules containing 1,800 EL.U elastase at a daily dosage of 3 capsules per day to each patient for 8 weeks, and investigating the severity of gonarthralgia before administration, 4 weeks after administration, and 8 weeks after administration.\n(§3) However, these patients had received and continued to receive during the test period antihypertensive agents, agents for improving cerebral circulation and other drugs for the treatment of their underlying diseases. However, the levels of these drugs in the patients' bodies remained unchanged from the day 8 weeks before the start of the test up to the last day of the test. During the tests, no patient received any other antiinflammatory, analgesic or steroid having the possible effect of palliation of arthralgia."}, "[1]": {"system": "other types of arthralgia", "assay": "Clinical examples: effectiveness against other types of arthralgia and symptoms", "assay_type": "in vivo, human", "excerpt": "as §1, §2, §3"}, "human patients": {"system": "human patients", "assay": "Clinical examples: side effects", "assay_type": "in vivo", "settings": "for resolution of epigastric discomfort: after 4 weeks", "excerpt": "as §1, §2, §3"}, "[2]": {"assay": "Absorption, blood concentration and fate of elastase after oral administration", "assay_type": "in vivo"}, "[3]": {"settings": "porcine elastase; cited from earlier work"}, "elastase": {"system": "elastase", "settings": "cited from earlier work"}, "lipoprotein": {"system": "lipoprotein", "settings": "cited from earlier work"}, "[4]": {"system": "lipid metabolism in the serum and tissues; arterial walls", "settings": "cited from earlier work"}, "[5]": {"settings": "individual patient case (one line per case No. 1-18), 3 capsules of 1,800 EL.U per day"}, "[6]": {"settings": "individual patient case (Table 2)"}},
  "note": "Values joined by “and” are separate entries in the source; they are usually repeats but may differ in a detail not shown here. Equal values may be shown once. “Also recorded” adds a separate entry of the source.",
  "data": [
    {"substance": "elastase: enzyme which specifically decomposes elastin, a water-insoluble scleroprotein; industrially produced by extraction from swine pancreas", "values": [
      {"measurement": "cases with gonarthralgia completely cleared up, number", "setting": "gonarthralgia; duration greater than 5 years", "result": "two"},
      {"measurement": "overall rate of improvement", "setting": "gonarthralgia; entire group of 18 patients", "result": 88.9, "unit": "%"},
      {"measurement": "patients with distinct palliation or complete clearing of gonarthralgia, number", "setting": "gonarthralgia; entire group of patients", "result": "sixteen"},
      {"measurement": "results of \"aggravated\"", "setting": "gonarthralgia; entire group of patients", "result": "no results of \"aggravated\""},
      {"measurement": "results of \"ineffective\", number", "setting": "gonarthralgia; entire group of patients", "result": "two"},
      {"measurement": "Effect on arthralgia after 4 w.", "setting": "gonarthralgia; [5]", "result": "+ (effective) and ++ and - (ineffective)"},
      {"measurement": "Effect on arthralgia after 8 w.", "setting": "gonarthralgia; [5]", "result": "+ (effective) and ++ and - (ineffective)"},
      {"measurement": "persistent gonarthralgia", "setting": "gonarthralgia; most of the patients, during term of administration, not informed of relation", "result": "considerably palliated or completely cleared up"},
      {"measurement": "results of \"markedly effective\", 8 weeks compared with 4 weeks", "setting": "gonarthralgia; overall", "result": "somewhat higher after the 8 week period"},
      {"measurement": "rate of effectiveness", "setting": "gonarthralgia; overall, 4 w", "result": 88.9, "unit": "%"},
      {"measurement": "rate of effectiveness (cases/total)", "setting": "gonarthralgia; overall, 4 w", "result": "16/18"},
      {"measurement": "effective, number of cases", "setting": "gonarthralgia; overall, 4 w, 18 cases", "result": 10},
      {"measurement": "markedly effective, number of cases", "setting": "gonarthralgia; overall, 4 w, 18 cases", "result": 6},
      {"measurement": "rate of effectiveness (cases/total)", "setting": "gonarthralgia; overall, 8 w", "result": "16/18"},
      {"measurement": "rate of effectiveness / overall rate of improvement", "setting": "gonarthralgia; overall, 8 w", "result": 88.9, "unit": "%"},
      {"measurement": "rate of \"effective\"", "setting": "gonarthralgia; overall, after 4 weeks", "result": 55.6, "unit": "%"},
      {"measurement": "rate of \"ineffective\"", "setting": "gonarthralgia; overall, after 4 weeks", "result": 11.1, "unit": "%"},
      {"measurement": "rate of \"markedly effective\"", "setting": "gonarthralgia; overall, after 4 weeks", "result": 33.3, "unit": "%"},
      {"measurement": "rate of \"aggravated\"", "setting": "gonarthralgia; overall, after 8 weeks", "result": 0, "unit": "%"},
      {"measurement": "rate of \"effective\"", "setting": "gonarthralgia; overall, after 8 weeks", "result": "44.4% and 44.48%"},
      {"measurement": "rate of \"ineffective\"", "setting": "gonarthralgia; overall, after 8 weeks", "result": 11.1, "unit": "%"},
      {"measurement": "rate of \"markedly effective\"", "setting": "gonarthralgia; overall, after 8 weeks", "result": "44.4% and 44.48%"},
      {"measurement": "onset of perceived palliation or clearing of arthralgia", "setting": "gonarthralgia; patients who showed improvement, after start of administration", "result": "at the beginning of the second week"},
      {"measurement": "morning stiffness in the fingers", "setting": "[1]; Case 4, after 4 weeks", "result": "cleared up"},
      {"measurement": "lumbago", "setting": "[1]; Case 5, during the term of administration", "result": "cleared up"},
      {"measurement": "cinesalgia in the left shoulder (periarthritis)", "setting": "[1]; Case 6, during the term of administration", "result": "No change"},
      {"measurement": "anomalies of sensation in fingers", "setting": "[1]; Cases 10 and 15", "result": "not cleared up"},
      {"measurement": "Miscellaneous", "setting": "[1]; [6]", "result": "morning stiffness in hands cleared; also recorded: carpal tunnel syndrome not changed; also recorded: dancing eliminated"},
      {"measurement": "Miscellaneous: lumbago", "setting": "[1]; [6]", "result": "cleared; also recorded: lumbago lasting"},
      {"measurement": "discontinuation of administration in cases with epigastric discomfort", "setting": "human patients; 3 cases (conclusions)", "result": "not discontinued in any of these cases"},
      {"measurement": "epigastric discomfort, number of cases", "setting": "human patients; 18 patients, 8 weeks", "result": 3},
      {"measurement": "epigastric discomfort, rate", "setting": "human patients; 18 patients, 8 weeks", "result": 16.7, "unit": "%"},
      {"measurement": "Miscellaneous: discontinuation and restart", "setting": "human patients; Case 9 (Table 2)", "result": "administration discontinued after 2 w; also recorded: restarted because of worsened arthralgia"},
      {"measurement": "resolution of epigastric discomfort", "setting": "human patients; Case 9, administration restarted", "result": "cleared up after 4 weeks"},
      {"measurement": "discontinuation of administration because of epigastric discomfort", "setting": "human patients; Case 9, at the beginning of the second week", "result": "discontinued at the beginning of the second week"},
      {"measurement": "epigastric discomfort", "setting": "human patients; Cases 3, 6 and 9, one to two weeks after administration began", "result": "suffered from epigastric discomfort for several days"},
      {"measurement": "resolution of epigastric discomfort", "setting": "human patients; Cases 3 and 6", "result": "disappeared after 4 weeks"},
      {"measurement": "nausea, vomiting, exanthema or the like", "setting": "human patients; all cases", "result": "In none of the cases"},
      {"measurement": "Side effect (transient epigastric discomfort)", "setting": "human patients; [6]", "result": "transient"},
      {"measurement": "time of maximum concentration of elastase in the blood", "setting": "[2]; after (oral) administration", "result": 6, "unit": "h"},
      {"measurement": "combination with blood proteins", "setting": "[2]; in the blood", "result": "combines with α2 -macroglobulin and α1 -antitrypsin"},
      {"measurement": "area under the blood concentration curve versus dosage", "setting": "[2]; oral", "result": "increases in proportion to the dosage"},
      {"measurement": "distribution", "setting": "[2]; oral", "result": "distributed widely over all of the body tissues"},
      {"measurement": "excretion", "setting": "[2]; oral", "result": "excreted into the urine"},
      {"measurement": "metabolism", "setting": "[2]; oral", "result": "metabolized chiefly in the liver"},
      {"measurement": "isoelectric point", "setting": "[3]", "result": "9.5±0.5", "unit": "pH"},
      {"measurement": "optimal activation pH, particularly", "setting": "elastase; N-α-benzoyl-L-alanine methyl ester as substrate", "result": "about 8.8"},
      {"measurement": "optimal activation pH", "setting": "elastase; N-α-benzoyl-L-alanine methyl ester as substrate, range", "result": "8 to 10"},
      {"measurement": "decomposition of N-α-benzoyl-L-alanine methyl ester, acetyl-L-trialanine-p-nitroanilide and elastin", "setting": "elastase; porcine elastase", "result": "specifically decomposing"},
      {"measurement": "β-lipoproteinase activity and lipoprotein lipase activity", "setting": "lipoprotein", "result": "confirmed"},
      {"measurement": "removal of denatured elastin, formation of fresh elastin, fat deposition, atherosclerosis", "setting": "[4]; arterial walls", "result": "functions to remove denatured elastin from arterial walls and to promote formation of fresh elastin"},
      {"measurement": "effect on disturbance of lipid metabolism in the serum and tissues", "setting": "[4]; in vivo", "result": "normalizing effect"},
      {"measurement": "elasticity and dilatability of arterial walls", "setting": "[4]; in vivo", "result": "maintains and promotes"}
    ]}
  ]
}
